Data reported in patent publication US20070219214A1, “Dual NK2/NK3-antagonists, pharmaceutical compositions comprising them, and processes for their preparation” (Solvay pharmaceuticals GmbH, priority 2006, published 2007).
Each block holds one molecule with its values, some of them ahead of it.

Legend:
[1] = target: T1, NK3-receptor (Meriones unguiculatus, UniProt Q2YHR0); test: NK3-receptor-antagonistic effectiveness in vivo, senktide-induced hypothermia in gerbils; settings: gerbil; for Inhibition of temperature increase at t = 60 minutes after oral (po) administration: senktide 0.03 mg/kg sc; for Inhibition of temperature increase at a dose of 10 mg/kg after parenteral (ip) administration: 10 mg/kg ip
T1 construct: from tissue; host or cells: whole animal (male gerbils), in vivo
T1 sequence (Q2YHR0 1-454): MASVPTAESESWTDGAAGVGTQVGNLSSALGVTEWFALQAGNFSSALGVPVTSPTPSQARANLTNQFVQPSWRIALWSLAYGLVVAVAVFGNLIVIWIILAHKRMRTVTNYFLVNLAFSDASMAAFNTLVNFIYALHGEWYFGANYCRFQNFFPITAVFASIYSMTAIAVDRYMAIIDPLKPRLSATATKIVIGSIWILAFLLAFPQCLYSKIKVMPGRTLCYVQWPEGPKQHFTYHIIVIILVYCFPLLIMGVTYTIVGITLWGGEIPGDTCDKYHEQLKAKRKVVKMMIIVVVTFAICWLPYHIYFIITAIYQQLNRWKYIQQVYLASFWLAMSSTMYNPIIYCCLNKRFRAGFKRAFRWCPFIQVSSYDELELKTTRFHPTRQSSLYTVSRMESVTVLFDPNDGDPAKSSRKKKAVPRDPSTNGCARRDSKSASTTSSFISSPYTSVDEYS
Description: 8. Determination of the NK3-Receptor-Antagonistic Effectiveness of the Test Substances In Vivo (Reduction of Body Temperature in Gerbils with Senktide-Induced Hypothermia)
NK3 agonists reduce the body temperature of gerbils. The senktide-induced hypothermia can be antagonized by administering compounds with NK3-antagonistic properties. Measuring the level of hypothermia is indicative for the degree of activity of the test compounds. The own effect of the tested compound is assessed in the same experiment to exclude an additional hyperthermic effect.
Male gerbils with a body weight between 60 to 90 g are housed in groups under normal day-night rhythm and under constant environmental temperature (room temperature: 21±2° C.) with a constant relative humidity level (50±10%). Water and food are freely available. […] Antagonists: see example compounds in table X.
The animals are weighted and marked 60 minutes prior to the agonist administration. For oral (po) testings, the test compounds are administered at t=−60 minutes. For parenteral or subcutaneous (i por sc, resp.) administration, at t=−30 minutes. […] At t=15 minutes the temperature is measured orally, and registered with a 0.1° C. accuracy after a 10 second reading. This way, animals are measured every 60 sec.

[2] = target: human NK1-receptor (Homo sapiens, UniProt P25103); test: Functional cellular test, Ca2+ measurements using FLIPR for NK1 activity; type: cell-based; parameters: expressed in transfected cells; host or cells: CHO fibroblast cells; settings: for pA2 data for NK1: CHO cells, human NK1, FLIPR Ca2+, agonist substance P 10^-8 M
Source text: The NK receptor is coupled to Gq.
All steps were done under sterile conditions.

[3] = target: T2, NK2-receptor (Cavia porcellus, UniProt Q64077); test: Functional NK2-receptor antagonism in gall bladder preparations isolated from guinea pigs; settings: neurokinin A-induced contraction
T2 construct: from tissue; host or cells: whole animal (Pirbright-White guinea pigs), in vivo
T2 sequence (Q64077 1-402): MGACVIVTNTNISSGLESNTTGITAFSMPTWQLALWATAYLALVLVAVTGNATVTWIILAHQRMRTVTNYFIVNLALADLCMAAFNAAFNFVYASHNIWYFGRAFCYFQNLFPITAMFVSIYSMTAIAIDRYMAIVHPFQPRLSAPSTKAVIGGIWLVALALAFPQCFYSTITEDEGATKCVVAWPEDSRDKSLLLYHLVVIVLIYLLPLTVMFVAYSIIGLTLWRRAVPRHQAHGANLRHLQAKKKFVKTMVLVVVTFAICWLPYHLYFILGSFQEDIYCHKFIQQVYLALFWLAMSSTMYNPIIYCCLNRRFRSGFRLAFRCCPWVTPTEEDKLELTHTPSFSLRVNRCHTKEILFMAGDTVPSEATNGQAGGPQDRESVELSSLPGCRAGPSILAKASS
Description: 6. Determination of Functional NK2-Receptor Antagonism of Test Compounds in Tissue Isolated from Guinea Pigs.
(§1) The NK2 antagonistic action of test compounds was tested in gall bladder preparations isolated from guinea pigs. The preparations were kept in an oxygenated nutrient solution kept at 37° C. For measuring contraction of the gall bladder muscle, the preparations were fixed to a hook and connected to force displacement transducers. Contractions were recorded on a pen recorder.
Before (predrug) and after the administration of the test compound such contractions were measured and quantified in percent of the predrug contraction. 2-3 concentrations of the test compound were applied showing the inhibition of the receptor stimulation concentration dependently. […]

[4] = target: T3, NK3-receptor (Cavia porcellus, UniProt P30098); test: Functional NK3-receptor antagonism in ileal preparations isolated from guinea pigs; settings: guinea pig ileum, [MePhe7]-neurokinin B-induced contraction
T3 construct: from tissue; host or cells: whole animal (Dunkin Hartley guinea pigs), in vivo
T3 sequence (P30098 1-440): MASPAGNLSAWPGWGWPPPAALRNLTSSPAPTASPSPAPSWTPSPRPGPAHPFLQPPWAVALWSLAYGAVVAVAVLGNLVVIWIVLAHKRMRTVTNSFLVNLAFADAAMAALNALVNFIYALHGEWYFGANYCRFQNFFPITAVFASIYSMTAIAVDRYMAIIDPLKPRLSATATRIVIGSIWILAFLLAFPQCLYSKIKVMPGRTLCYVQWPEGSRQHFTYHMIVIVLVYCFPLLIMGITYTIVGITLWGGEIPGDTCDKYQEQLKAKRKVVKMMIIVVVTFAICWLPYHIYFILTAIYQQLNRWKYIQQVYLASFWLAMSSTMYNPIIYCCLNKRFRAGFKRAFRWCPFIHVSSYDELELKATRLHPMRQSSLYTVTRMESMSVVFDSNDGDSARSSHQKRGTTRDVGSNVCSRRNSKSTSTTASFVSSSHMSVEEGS
Description: 7. Determination of Functional NK3-Receptor Antagonism of Test Compounds in Tissue Isolated from Guinea Pigs.
as §1, with “NK3-antagonistic” for “NK2 antagonistic”, “ileal” for “gall bladder”, “longitudinal muscle of the ileum,” for “gall bladder muscle,”
The NK3-receptors were stimulated with the NK3-receptor agonist [MePhe^7]-neurokinin B, causing a contraction of the muscle. Before (predrug) and after the administration of the test compound such contractions were measured and quantified in percent of the predrug contraction. 2-3 concentrations of the test compound were applied showing the inhibition of the receptor stimulation concentration dependently. […] The pIC50 value indicates the inhibitory potency of the test compounds to the NK3-receptor.

[5] = t = 30 minutes after administration

human NK1-receptor, sequence (P25103 whole entry): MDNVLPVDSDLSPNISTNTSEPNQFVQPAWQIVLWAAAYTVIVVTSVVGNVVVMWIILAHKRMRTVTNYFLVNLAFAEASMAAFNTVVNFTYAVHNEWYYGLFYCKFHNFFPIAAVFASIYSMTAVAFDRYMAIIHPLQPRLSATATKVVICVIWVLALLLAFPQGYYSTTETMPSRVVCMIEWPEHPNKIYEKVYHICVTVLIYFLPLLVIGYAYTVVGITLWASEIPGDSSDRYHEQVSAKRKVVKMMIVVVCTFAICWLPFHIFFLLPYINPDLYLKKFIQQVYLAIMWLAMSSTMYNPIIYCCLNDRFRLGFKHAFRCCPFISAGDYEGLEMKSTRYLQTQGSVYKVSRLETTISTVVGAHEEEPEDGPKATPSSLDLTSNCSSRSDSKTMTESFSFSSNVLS

Inhibition of temperature increase at t = 60 minutes after oral (po) administration ([1]; Dose: 10 mg/kg po): 37% | Inhibition of temperature increase at t = 60 minutes after oral (po) administration ([1]; Dose: 30 mg/kg po): 54% | Kb ([2]; read-out: pA2 data for NK1 (converted)): 7.94 nM
Compound: CN(C)C(=O)C1(N2CCCCC2)CCN(CC[C@H](CN(C)C(=O)c2ccccc2)c2ccc(Cl)c(Cl)c2)CC1 [compound 1]

pA2, NK-2-receptor-antagonistic effectiveness on the guinea pig gall bladder in vitro [3]: 8.96 | pA2, functional NK3-antagonism on isolated guinea pig tissue [4]: 8.5
Compound: CN(C)C(=O)C1(N2CCCCC2)CCN(CC[C@H](CN(C)C(=O)C2CCCCC2)c2ccc(Cl)c(Cl)c2)CC1 [compound 3]

pA2, NK-2-receptor-antagonistic effectiveness on the guinea pig gall bladder in vitro [3]: 8.86 | pA2, functional NK3-antagonism on isolated guinea pig tissue [4]: 8.0 | Inhibition of temperature increase at a dose of 10 mg/kg after parenteral (ip) administration ([1]; t = 15 minutes after administration): 54% | Inhibition of temperature increase at a dose of 10 mg/kg after parenteral (ip) administration [1, 5]: 68%
Compound: CN(C)C(=O)C1(N2CCCCC2)CCN(CC[C@H](CN(C)C(=O)c2ccc(F)cc2)c2ccc(Cl)c(Cl)c2)CC1 [compound 4]

Inhibition of temperature increase at a dose of 10 mg/kg after parenteral (ip) administration [1, 5]: 75%
Compound: CN(C)C(=O)C1(N2CCCCC2)CCN(CC[C@H](CN(C)C(=O)c2ccc(O)cc2)c2ccc(Cl)c(Cl)c2)CC1 [compound 6, 1′-{(3S)-3-(3,4-dichlorophenyl)-4-[(4-hydroxybenzoyl)-(methyl)amino]butyl}-N,N-dimethyl-1,4′-bipiperidine-4′-carboxamide]

pA2, NK-2-receptor-antagonistic effectiveness on the guinea pig gall bladder in vitro [3]: 8.03 | pA2 data for NK1 [2]: 7.9
Compound: CN(C)C(=O)C1(N2CCCCC2)CCN(CC[C@H](CN(C)C(=O)c2cc(C#N)c3ccccc3c2)c2ccc(Cl)c(Cl)c2)CC1 [compound 11]

pA2 data for NK1 [2]: 7.5
Compound: CN(C)C(=O)C1(N2CCCCC2)CCN(CC[C@H](CN(C)C(=O)c2ccc(F)cc2F)c2ccc(Cl)c(Cl)c2)CC1 [compound 13]

pA2 data for NK1 [2]: 7.3
Compound: CN(C)C(=O)C1(N2CCCCC2)CCN(CC[C@H](CN(C)C(=O)c2ccc(F)c(F)c2)c2ccc(Cl)c(Cl)c2)CC1 [compound 14]

pA2 data for NK1 [2]: 7.2
Compound: CN(C)C(=O)C1(N2CCCCC2)CCN(CC[C@H](CN(C)C(=O)c2cc(F)ccc2F)c2ccc(Cl)c(Cl)c2)CC1 [compound 15]
